Test results published in PubChem BioAssay (NCI).
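Interpolation was linear, between the two tested concentrations surrounding the appropriate level; five concentrations were tested over 48 hours in 96-well plates. Abbreviation: GI50, concentration required for 50% inhibition of growth. TGI: concentration producing complete growth inhibition.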

Tests used:
Experiment in all cases: NCI anticancer screen, dose series, 48 h
[1] = test system: 786-0 renal
[2] = test system: A498 renal
[3] = test system: A549 NSCLC
[4] = test system: ACHN renal
[5] = test system: BT-549 breast
[6] = test system: CAKI-1 renal
[7] = test system: CCRF-CEM leukemia
[8] = test system: COLO 205 colon
[9] = test system: DU-145 prostate
[10] = test system: EKVX NSCLC
[11] = test system: HCC-2998 colon
[12] = test system: HCT-116 colon
[13] = test system: HCT-15 colon
[14] = test system: HL-60(TB) leukemia
[15] = test system: HOP-62 NSCLC
[16] = test system: HOP-92 NSCLC
[17] = test system: HS 578T breast
[18] = test system: HT29 colon
[19] = test system: IGROV1 ovarian
[20] = test system: K-562 leukemia
[21] = test system: KM12 colon
[22] = test system: LOX IMVI melanoma
[23] = test system: M14 melanoma
[24] = test system: MALME-3M melanoma
[25] = test system: MCF7 breast
[26] = test system: MDA-MB-231 breast
[27] = test system: MDA-MB-435
[28] = test system: MOLT-4 leukemia
[29] = test system: NCI-H226 lung
[30] = test system: NCI-H23 lung
[31] = test system: NCI-H460 lung
[32] = test system: NCI-H522 lung
[33] = test system: NCI/ADR-RES ovarian
[34] = test system: OVCAR-3 ovarian
[35] = test system: OVCAR-4 ovarian
[36] = test system: OVCAR-5 ovarian
[37] = test system: OVCAR-8 ovarian
[38] = test system: PC-3 prostate
[39] = test system: RPMI-8226 leukemia
[40] = test system: RXF 393 renal
[41] = test system: SF-268 CNS
[42] = test system: SF-295 CNS
[43] = test system: SF-539 CNS
[44] = test system: SK-MEL-2 melanoma
[45] = test system: SK-MEL-28 melanoma
[46] = test system: SK-MEL-5 melanoma
[47] = test system: SK-OV-3 ovarian
[48] = test system: SN12C renal
[49] = test system: SNB-19 CNS
[50] = test system: SNB-75 CNS
[51] = test system: SR leukemia
[52] = test system: SW-620 colon
[53] = test system: T-47D breast
[54] = test system: TK-10 renal
[55] = test system: U251 CNS
[56] = test system: UACC-62 melanoma
[57] = test system: UO-31 renal

Cc1cc(C)c(S(=O)(=O)N(CCc2cccc(Br)c2)Cc2ccc(-c3cccc(S(C)(=O)=O)c3)cc2)c(C)c1
GI50 [1]: > 100 µM | TGI [1]: > 100 µM | GI50 [2]: > 100 µM | TGI [2]: > 100 µM | GI50 [3]: > 100 µM | TGI [3]: > 100 µM | GI50 [4]: > 100 µM | TGI [4]: > 100 µM | GI50 [5]: > 100 µM | TGI [5]: > 100 µM | GI50 [6]: > 100 µM | TGI [6]: > 100 µM | GI50 [7]: > 100 µM | TGI [7]: > 100 µM | GI50 [8]: > 100 µM | TGI [8]: > 100 µM | GI50 [9]: > 100 µM | TGI [9]: > 100 µM | GI50 [10]: > 100 µM | TGI [10]: > 100 µM | GI50 [11]: > 100 µM | TGI [11]: > 100 µM | GI50 [12]: > 100 µM | TGI [12]: > 100 µM | GI50 [13]: > 100 µM | TGI [13]: > 100 µM | GI50 [14]: > 100 µM | TGI [14]: > 100 µM | GI50 [15]: > 100 µM | TGI [15]: > 100 µM | GI50 [16]: > 100 µM | TGI [16]: > 100 µM | GI50 [17]: > 100 µM | TGI [17]: > 100 µM | GI50 [18]: > 100 µM | TGI [18]: > 100 µM | GI50 [19]: > 100 µM | TGI [19]: > 100 µM | GI50 [20]: > 100 µM | TGI [20]: > 100 µM | GI50 [21]: > 100 µM | TGI [21]: > 100 µM | GI50 [22]: > 100 µM | TGI [22]: > 100 µM | GI50 [23]: > 100 µM | TGI [23]: > 100 µM | GI50 [24]: > 100 µM | TGI [24]: > 100 µM | GI50 [25]: > 100 µM | TGI [25]: > 100 µM | GI50 [26]: > 100 µM | TGI [26]: > 100 µM | GI50 [27]: > 100 µM | TGI [27]: > 100 µM | GI50 [28]: > 100 µM | TGI [28]: > 100 µM | GI50 [29]: > 100 µM | TGI [29]: > 100 µM | GI50 [30]: > 100 µM | TGI [30]: > 100 µM | GI50 [31]: > 100 µM | TGI [31]: > 100 µM | GI50 [32]: > 100 µM | TGI [32]: > 100 µM | GI50 [33]: > 100 µM | TGI [33]: > 100 µM | GI50 [34]: > 100 µM | TGI [34]: > 100 µM | GI50 [35]: > 100 µM | TGI [35]: > 100 µM | GI50 [36]: > 100 µM | TGI [36]: > 100 µM | GI50 [37]: > 100 µM | TGI [37]: > 100 µM | GI50 [38]: > 100 µM | TGI [38]: > 100 µM | GI50 [39]: > 100 µM | TGI [39]: > 100 µM | GI50 [40]: > 100 µM | TGI [40]: > 100 µM | GI50 [41]: > 100 µM | TGI [41]: > 100 µM | GI50 [42]: > 100 µM | TGI [42]: > 100 µM | GI50 [43]: > 100 µM | TGI [43]: > 100 µM | GI50 [44]: > 100 µM | TGI [44]: > 100 µM | GI50 [45]: > 100 µM | TGI [45]: > 100 µM | GI50 [46]: > 100 µM | TGI [46]: > 100 µM | GI50 [47]: > 100 µM | TGI [47]: > 100 µM | GI50 [48]: > 100 µM | TGI [48]: > 100 µM | GI50 [49]: > 100 µM | TGI [49]: > 100 µM | GI50 [50]: > 100 µM | TGI [50]: > 100 µM | GI50 [51]: > 100 µM | TGI [51]: > 100 µM | GI50 [52]: > 100 µM | TGI [52]: > 100 µM | GI50 [53]: > 100 µM | TGI [53]: > 100 µM | GI50 [54]: > 100 µM | TGI [54]: > 100 µM | GI50 [55]: > 100 µM | TGI [55]: > 100 µM | GI50 [56]: > 100 µM | TGI [56]: > 100 µM | GI50 [57]: > 100 µM | TGI [57]: > 100 µM
